Results as given in ChEMBL document CHEMBL1146287, “New carbon-linked azole oxazolidinones with improved potency and pharmacokinetics” (Bioorg Med Chem Lett, 2007).
In brackets after ≈: the same amount, converted by molar mass.

Tests used:
Streptococcus pneumoniae = test: Antimicrobial activity against streptococcus pneumoniae by broth dilution method; assay type: functional
Staphylococcus aureus = test: Antimicrobial activity against staphylococcus aureus by broth dilution method; assay type: functional
Haemophilus influenzae = test: Antimicrobial activity against Haemophilus influenzae by broth dilution method; assay type: functional
Mus musculus = test: Antibacterial activity against Streptococcus pneumoniae ARC548 infected C57BL/6 mouse lung at 25 mg/kg, po after 2 days relative to Linezolid; assay type: functional
[1] = biological target: T1, Amine oxidase [flavin-containing] A (Homo sapiens, UniProt P21397); test: Inhibition human liver MAOA activity
T1 sequence (P21397 whole entry): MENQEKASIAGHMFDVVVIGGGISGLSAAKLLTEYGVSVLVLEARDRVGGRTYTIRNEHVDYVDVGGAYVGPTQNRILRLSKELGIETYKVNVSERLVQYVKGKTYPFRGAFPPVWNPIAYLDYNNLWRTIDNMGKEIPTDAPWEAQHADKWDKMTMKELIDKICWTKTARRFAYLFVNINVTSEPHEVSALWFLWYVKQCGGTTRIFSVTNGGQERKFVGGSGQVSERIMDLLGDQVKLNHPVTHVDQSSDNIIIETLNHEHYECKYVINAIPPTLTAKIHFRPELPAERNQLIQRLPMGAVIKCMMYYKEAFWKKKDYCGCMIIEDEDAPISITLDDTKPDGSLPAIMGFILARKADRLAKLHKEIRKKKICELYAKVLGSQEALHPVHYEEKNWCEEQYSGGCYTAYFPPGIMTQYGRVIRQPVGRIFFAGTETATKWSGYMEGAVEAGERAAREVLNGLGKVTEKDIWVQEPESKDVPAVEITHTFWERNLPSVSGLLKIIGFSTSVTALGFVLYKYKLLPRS

[2] = Oral bioavailability in rat at 40 mg/kg; assay type: ADME, organism-based; settings: in vivo
[3] = Half life in rat; assay type: ADME, organism-based; settings: in vivo
[4] = Plasma clearance in rat; assay type: ADME, organism-based
[5] = Volume of distribution in rat; assay type: ADME, organism-based; settings: in vivo, read-out: Vss

Row | Structure (SMILES) | MIC (Streptococcus pneumoniae) | MIC (Staphylococcus aureus) | MIC (Haemophilus influenzae) | Lung antibacterial activity relative to linezolid (Mus musculus) | Ki [1] | bioavailability [2] | half-life [3] | clearance [4] | Vd [5]
1 | N#CCn1cc(-c2ccc(N3C[C@H](Cn4ccnn4)OC3=O)cc2F)nn1 | 2 µg/mL (≈ 5.43 µM) | 4 µg/mL (≈ 10.9 µM) | 32 µg/mL (≈ 86.9 µM) |  |  |  |  |  | 
2 | Cc1cc(-c2ccc(N3C[C@H](CNc4ccon4)OC3=O)cc2F)on1 | 0.25 µg/mL (≈ 0.698 µM) | 0.5 µg/mL (≈ 1.4 µM) | 16 µg/mL (≈ 44.7 µM) | 33% | 0.42 µmol |  |  |  | 
3 | Cc1cc(-c2ccc(N3C[C@H](Cn4ccnn4)OC3=O)cc2F)on1 | 0.25 µg/mL (≈ 0.728 µM) | 0.5 µg/mL (≈ 1.46 µM) | 8 µg/mL (≈ 23.3 µM) | 92% | 2.9 µmol | 82% | 1.7 h | 5 mL/min/kg | 0.6 L/kg
4 | CC(=O)NC[C@H]1CN(c2ccc(-c3c[nH]nn3)c(F)c2)C(=O)O1 | 2 µg/mL (≈ 6.26 µM) | 4 µg/mL (≈ 12.5 µM) | 8 µg/mL (≈ 25.1 µM) |  |  |  |  |  | 
5 | O=C1O[C@@H](Cn2ccnn2)CN1c1ccc(-c2c[nH]nn2)c(F)c1 | 32 µg/mL (≈ 97.2 µM) | 64 µg/mL (≈ 194 µM) | > 64 µg/mL |  |  |  |  |  | 
6 | Cn1cc(-c2ccc(N3C[C@H](Cn4ccnn4)OC3=O)cc2F)nn1 | 16 µg/mL (≈ 46.6 µM) | 32 µg/mL (≈ 93.2 µM) | > 64 µg/mL |  |  |  |  |  | 
7 | Cc1cn(C[C@H]2CN(c3ccc(-c4cc(C)no4)c(F)c3)C(=O)O2)nn1 | 0.25 µg/mL (≈ 0.7 µM) | 0.5 µg/mL (≈ 1.4 µM) | 4 µg/mL (≈ 11.2 µM) |  | 22.6 µmol | 87% | 1.2 h | 5 mL/min/kg | 0.5 L/kg
8 | CC(=O)NC[C@H]1CN(c2ccc(-c3cc(C)no3)c(F)c2)C(=O)O1 | 0.25 µg/mL (≈ 0.75 µM) | 0.5 µg/mL (≈ 1.5 µM) | 4 µg/mL (≈ 12 µM) | 22% | 0.95 µmol |  |  |  | 
9 | O=C1O[C@@H](CNc2ccon2)CN1c1ccc(-c2c[nH]nn2)c(F)c1 | 16 µg/mL (≈ 46.5 µM) | 8 µg/mL (≈ 23.2 µM) | 16 µg/mL (≈ 46.5 µM) |  |  |  |  |  | 
10 | CC(=O)NC[C@H]1CN(c2ccc(N3CCOCC3)c(F)c2)C(=O)O1 [LINEZOLID] |  |  | 8 µg/mL (≈ 23.7 µM) | 75% | 20 µmol |  |  |  | 
